Key:
NCI-N87 cell = assay: Proliferation inhibition assay in serum-containing media; type: cell-based, human
Method: Cell viability was determined using Cell Titer Glo from Promega according to manufacturer's instructions.

HER2 = HER2 (Homo sapiens, UniProt P04626); conditions: reported value; read-out: reported affinity of the parent antibody; cited from earlier work

| Molecule | inhibition of cell proliferation (NCI-N87 cell) | Kd (HER2) [nM] |
| --- | --- | --- |
| pertuzumab: humanized version of the murine antibody 2C4 that inhibits dimerization of HER2 with other HER receptors [reference compound] | limited activity | – |
| 1.39.1: fully human monoclonal antibody against human HER2, parent of 39S (WO 2008/019290); VH SEQ ID NO:43, VL SEQ ID NO:44 (antibody, V domains shown) VH: EVQLVESGGGLVKPGGSLRLSCAASGFTFSSYSMNWVRQAPGKGLEWVSSISSSSSYIYYADSVKGRFTISRDNAKNSLYLQMNSLRAEDTAVYYCARGGDGYNYYYFDYWGQGTLVTVSS VL: DIVMTQSPDSLAVSLGERATITCKSSQSVFFRSNNKNCLAWYQQRPGQPPNLLIYWASSRESGVPDRFSGSGSGTDFALTISSLQTEDVAVYYCQQYFGSPFTFGPGTKVDIK | – | ~2 |

Reference: patent publication US10160812B2, “Bispecific HER2 antibodies” (MedImmune, LLC, priority 2014, dated 2018)
